Read-outs that look alike come from different tables or passages of the source. A value given as a limit tells only on which side of the number the result lay.

Test [1] has as its target His-tagged KRAS G12D protein (Homo sapiens, UniProt P01116, G12D). As to the kind of experiment: KRAS G12D TR-FRET Assay. It is filed as binding. The protocol: Compounds of interest were prepared in a dose-response titration in DMSO, and 80 nL were added via Labcyte Echo to each well of a 384-well plate (Perkin Elmer 6008280). […] The plate was incubated for 30 minutes at room temperature. Biotinylated KRPep-2d substrate (Amgen) was diluted to 20 nM in Assay Buffer and 2 μL was added to all wells and incubated for 1 h at room temperature. Detection Reagent (0.4 nM LANCE Eu-W1024 Anti-6xHis (Perkin Elmer AD0401), 5 nM streptavidin-d2 (Cisbio 610SADLA)) was prepared in Assay Buffer, then 4 μL was added to the plate and incubated for 1 h at room temperature. Plates were read using PerkinElmer EnVision (ex: 320 nm, em1: 665 nm, em2: 615 nm) and em1/em2 data was used to generate curve fits using a 4-parameter logistic model to calculate IC50 values.
Background: Time-resolved FRET reads energy transfer from a long-lived donor to a nearby acceptor.

Test [2] concerns Phosphorylation of ERK1/2 in AsPC-1 cells. As to the kind of experiment: Phospho-ERK1/2 MSD Assay (AsPC-1 cells). The test is classed as cell-based. Particulars: Homo sapiens, read-out: p-ERK (AsPC-1 cells) IC50. As for the experimental part:
AsPC-1 (ATCC® CRL-1682™) cells were cultured in RPMI 1640 Medium (ThermoFisher Scientific 11875093) containing 10% fetal bovine serum (ThermoFisher Scientific 16000044) and 1× penicillin-streptomycin-glutamine (ThermoFisher Scientific 10378016). Sixteen hours prior to compound treatment, AsPC-1 cells were seeded in 96-well cell culture plates at a density of 25,000 cells/well and incubated at 37° C., 5% CO2. A compound dose-response titration was diluted in growth media, added to appropriate wells of a cell culture plate, and then incubated at 37° C., 5% CO2 for 2 hours. Following compound treatment, cells were washed with ice-cold Dulbecco's phosphate-buffered saline, no Ca^2+ or Mg^2+ (ThermoFisher Scientific 14190144), and then lysed in RIPA buffer (50 mM Tris-HCl pH 7.5, 1% Igepal, 0.5% sodium deoxycholate, 150 mM NaCl, and 0.5% sodium dodecyl sulfate) containing protease inhibitors (Roche 4693132001) and phosphatase inhibitors (Roche 4906837001). Phosphorylation of ERK1/2 in compound-treated lysates was assayed using Phospho-ERK1/2 Whole Cell Lysate kits (Meso Scale Discovery K151DWD) according to the manufacturer's protocol. Assay plates were read on a Meso Scale Discovery Sector Imager 6000, and data were analyzed using a 4-parameter logistic model to calculate IC50 values.

Test [3] deals with GDP-bound KRAS protein (aa 1-169), containing both G12D and C118A amino acid substitutions (Homo sapiens, UniProt P01116, C118A/G12D). As to the kind of experiment: KRAS G12D Coupled Nucleotide Exchange Assay. It is filed as biochemical. Particulars: 2 h compound pre-incubation. As for the experimental part:
Following compound pre-incubation, purified SOS protein (aa 564-1049) and GTP (Roche 10106399001) were added to the assay wells and incubated for an additional 30 min. […] The assay plates were then read on a PerkinElmer EnVision Multilabel Reader, using AlphaScreen® technology, and data were analyzed using a 4-parameter logistic model to calculate IC50 values.

GDP-bound KRAS protein (aa 1-169), containing both G12D and C118A amino acid substitutions, sequence (P01116 1-169 isoform P01116-2 G12D/C118A): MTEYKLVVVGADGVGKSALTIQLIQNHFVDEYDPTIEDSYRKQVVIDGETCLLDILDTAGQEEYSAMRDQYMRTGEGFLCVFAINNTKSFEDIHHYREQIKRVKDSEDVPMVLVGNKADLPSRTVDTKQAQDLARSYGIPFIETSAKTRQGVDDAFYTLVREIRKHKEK
His-tagged KRAS G12D protein, sequence (P01116 1-188 isoform P01116-2 G12D): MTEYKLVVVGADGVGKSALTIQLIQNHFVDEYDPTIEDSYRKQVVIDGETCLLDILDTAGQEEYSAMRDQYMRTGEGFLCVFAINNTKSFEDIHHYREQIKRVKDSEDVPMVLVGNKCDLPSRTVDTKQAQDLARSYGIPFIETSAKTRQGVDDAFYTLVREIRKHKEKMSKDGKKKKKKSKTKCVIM

With `CCc1c(F)ccc2cc(O)cc(-c3c(O)cc4c(N5CC6CCC(C5)N6)nc(OCC56CCCN5C[C@H](F)C6)nc4c3F)c12` (atropisomer, axis not shown; (M)) [Example 234, (M)-4-((1R,5S)-3,8-Diazabicyclo[3.2.1]octan-3-yl)-7-(8-ethyl-7-fluoro-3-hydroxynaphthalen-1-yl)-8-fluoro-2-(((2R,7aS)-2-fluorotetrahydro-1H-pyrrolizin-7a(5H)-yl)methoxy)quinazolin-6-ol], the IC50 in test [1] is 0.001 µM; in test [2] (ASPC1, 2 h, 2 hours treatment) it was 0.022 µM. The “Avg 2 h Coupled Exchange IC50” value in test [3] came out at 0.002 µM.
In test [1], `CCc1c(F)ccc2cc(O)cc(-c3ccc4c(N5C[C@H]6CC[C@@H](C5)N6)cc(OC[C@@]56CCCN5C[C@H](F)C6)nc4c3)c12` [Example 210, 4-(4-((1R,5S)-3,8-Diazabicyclo[3.2.1]octan-3-yl)-2-(((2R,7aS)-2-fluorotetrahydro-1H-pyrrolizin-7a(5H)-yl)methoxy)quinolin-7-yl)-5-ethyl-6-fluoronaphthalen-2-ol] had an IC50 of 0.044 µM. Also, the “Avg 2 h Coupled Exchange IC50” value in test [3] turned out to be 0.069 µM.
For `N#Cc1c(OC[C@@]23CCCN2C[C@H](F)C3)nc2c(F)c(-c3cc(O)cc4ccccc34)ccc2c1N1C[C@H]2CC[C@@H](C1)N2` [Example 62, 4-((1R,5S)-3,8-diazabicyclo[3.2. 1]octan-3-yl)-8-fluoro-2-(((2R,7aS)-2-fluorotetrahydro-1H-pyrrolizin-7a(5H)-yl)methoxy)-7-(3-hydroxynaphthalen-1-yl)quinoline-3-carbonitrile], in that order: 2.65 µM and 1.17 µM.
For `CN1C[C@H](F)C[C@H]1COc1nc(N2[C@@H]3CC[C@H]2CNC3)c2cc(F)c(-c3cc(O)cc4ccccc34)c(O)c2n1` [Example 103, 4-((1R,5S)-3,8-diazabicyclo[3.2.1]octan-8-yl)-6-fluoro-2-(((2S,4R)-4-fluoro-1-methylpyrrolidin-2-yl)methoxy)-7-(3-hydroxynaphthalen-1-yl)quinazolin-8-ol], in that order: 1.08 µM and 0.517 µM.
For `Oc1ccc(Cl)c(-c2ccc3c(N4[C@@H]5CC[C@H]4CNC5)nc(OC[C@@]45CCCN4C[C@H](F)C5)nc3c2)c1F` [Example 35, 3-(4-((1R,5S)-3,8-diazabicyclo[3.2. 1]octan-8-yl)-2-(((2R,7aS)-2-fluorotetrahydro-1H-pyrrolizin-7a(5H)-yl)methoxy)quinazolin-7-yl)-4-chloro-2-fluorophenol], in that order: 4.7 µM and 1.82 µM.
With `CCc1c(F)ccc2cc(O)cc(-c3ccc4c(N5C[C@@H]6CC[C@](F)(C5)N6)nc(OC[C@@]56CCCN5C[C@H](F)C6)nc4c3F)c12` [Example 178, 5-ethyl-6-fluoro-4-(8-fluoro-4-((1S,5S)-1-fluoro-3,8-diazabicyclo[3.2.1]octan-3-yl)-2-(((2R,7aS)-2-fluorotetrahydro-1H-pyrrolizin-7a(5H)-yl)methoxy)quinazolin-7-yl)naphthalen-2-ol], the IC50 in test [1] turned out to be 0.003 µM; in test [2] (ASPC1, 2 h, 2 hours treatment) it was 0.143 µM. The “Avg 2 h Coupled Exchange IC50” value in test [3] came out at 0.005 µM.
In the case of `N#Cc1c(OC[C@@]23CCCN2C[C@H](F)C3)nc2c(F)c(-c3cc(O)cc4ccccc34)c(Cl)cc2c1N1C[C@H]2CC[C@@H](C1)N2` [Example 61, 4-((1R,5S)-3,8-diazabicyclo[3.2. 1]octan-3-yl)-6-chloro-8-fluoro-2-(((2R,7aS)-2-fluorotetrahydro-1H-pyrrolizin-7a(5H)-yl)methoxy)-7-(3-hydroxynaphthalen-1-yl)quinoline-3-carbonitrile], the IC50 in test [1] stood at 2.56 µM. For the same molecule, the “Avg 2 h Coupled Exchange IC50” value in test [3] was 1.67 µM.
The like results for `Cn1ncc2cccc(-c3ccc4c(N5C[C@H]6CC[C@@H](C5)N6)nc(OC[C@@]56CCCN5C[C@H](F)C6)nc4c3)c21` [Example 66, 4-((1R,5S)-3,8-diazabicyclo [3.2. 1]octan-3-yl)-2-(((2R,7aS)-2-fluorotetrahydro-1H-pyrrolizin-7a(5H)-yl)methoxy)-7-(1-methyl-1H-indazol-7-yl)quinazoline] were, in that order, 0.94 µM and 0.3 µM.
`Oc1cc(-c2ccc3c(N4C[C@H]5COC[C@@H](C4)N5)nc(OC[C@@]45CCCN4C[C@H](F)C5)nc3c2F)c2ccccc2c1` [Example 16, 4-(4-((1R,5S)-3-oxa-7,9-diazabicyclo[3.3. 1]nonan-7-yl)-8-fluoro-2-(((2R,7aS)-2-fluorotetrahydro-1H-pyrrolizin-7a(5H)-yl)methoxy)quinazolin-7-yl)naphthalen-2-ol]: the IC50 in test [1] was determined as 0.02 µM; in test [2] (ASPC1, 2 h, 2 hours treatment) it was 4.82 µM. In test [3], the “Avg 2 h Coupled Exchange IC50” value worked out at 0.007 µM.
As for `Oc1cc(-c2c(F)cc3c(N4[C@@H]5CC[C@H]4CNC5)nc(OC[C@@]45CCCN4C[C@H](F)C5)nc3c2O)c2ccccc2c1` [Example 102, 4-((1R,5S)-3,8-Diazabicyclo[3.2.1]octan-8-yl)-6-fluoro-2-(((2R,7aS)-2-fluorotetrahydro-1H-pyrrolizin-7a(5H)-yl)methoxy)-7-(3-hydroxynaphthalen-1-yl)quinazolin-8-ol], the IC50 in test [1] is 0.144 µM; in test [2] (ASPC1, 2 hours treatment) it was 10.1 µM. Further, the “Avg 2 h Coupled Exchange IC50” value in test [3] came to 0.055 µM.
Regarding `C=Cc1c(F)ccc2cccc(-c3ccc4c(N5[C@@H]6CC[C@H]5CNC6)nc(OC[C@@]56CCCN5C[C@H](F)C6)nc4c3)c12` [Example 104, 4-((1R,5S)-3,8-diazabicyclo[3.2.1]octan-8-yl)-7-(7-fluoro-8-vinylnaphthalen-1-yl)-2-(((2R,7aS)-2-fluorotetrahydro-1H-pyrrolizin-7a(5H)-yl)methoxy)quinazoline], the IC50 in test [1] was found to be 0.544 µM. The “Avg 2 h Coupled Exchange IC50” value in test [3] stood at 2.3 µM.
For `Cc1ccc2cn[nH]c2c1-c1ccc2c(N3C[C@H]4CC[C@@H](C3)N4)nc(OC[C@@]34CCCN3C[C@H](F)C4)nc2c1` [Example 67, 4-((1R,5S)-3,8-diazabicyclo[3.2. 1]octan-3-yl)-2-(((2R,7aS)-2-fluorotetrahydro-1H-pyrrolizin-7a(5H)-yl)methoxy)-7-(6-methyl-1H-indazol-7-yl)quinazoline], in that order: 0.512 µM and 0.199 µM.
In turn, `Oc1cc(-c2ccc3c(N4[C@@H]5CC[C@H]4CNC5)nc(OC[C@@]45CCCN4C[C@H](F)C5)nc3c2F)c2cnccc2c1` [Example 31, 8-(4-((1R,5S)-3,8-diazabicyclo[3.2. 1]octan-8-yl)-8-fluoro-2-(((2R,7aS)-2-fluorotetrahydro-1H-pyrrolizin-7a(5H)-yl)methoxy)quinazolin-7-yl)isoquinolin-6-ol] yielded an IC50 in test [1] of 0.546 µM. In addition, in test [3], the “Avg 2 h Coupled Exchange IC50” value worked out at 0.259 µM.
`CN1C[C@H](F)C[C@H]1COc1nc2c(F)c(-c3cc(O)cc4ccccc34)c(Cl)cc2c(N2C[C@H]3CC[C@@H](C2)N3)c1C#N` [Example 63, 4-((1R,5S)-3,8-diazabicyclo[3.2. 1]octan-3-yl)-6-chloro-8-fluoro-2-(((2S,4R)-4-fluoro-1-methylpyrrolidin-2-yl)methoxy)-7-(3-hydroxynaphthalen-1-yl)quinoline-3-carbonitrile] came in with an IC50 in test [1] of over 25 µM. For the same molecule, the “Avg 2 h Coupled Exchange IC50” value in test [3] turned out to be 0.555 µM.

Broadly, the IC50 is the point on the concentration scale where inhibition reaches its midpoint.
